From patent US4001237A, “Oxazole, isoxazole, thiazole and isothiazole amides” (priority 1976, dated 1977)
Where a name gives a salt, the structure may show the parent alone. Read-outs that look alike come from different tables or passages of the source.

Legend:
[1] = system: spontaneous hypertensive rats; test: Antihypertensive activity by oral administration to spontaneous hypertensive rats; assay type: in vivo, rat; conditions: for change in vivo at 1 mg/kg / change in vivo at 3 mg/kg / change in vivo at 10 mg/kg: Rattus norvegicus, read-out: Antihypertensive Activity % Blood Pressure Change
Procedure: (§1) In the following table, antihypertensive acitvity was determined by oral administration to spontaneous hypertensive rats, and the in vitro and in vivo α-adrenergic receptor blocking effect was determined by tests described following the table. In the in vitro test, the inhibition by the test drug of norepinephrine induced contractions of rat seminal vesicles was measured; and in the in vivo test, the inhibition by the test drug of norepinephrine induced pressor responses in anesthetized dogs was measured.

α-adrenergic receptor [2] = molecular target: T1, α-adrenergic receptor (Rattus norvegicus, UniProt P43140); test: Isolated rat seminal vesicle assay: inhibition of norepinephrine induced contractions; assay type: cell-based; conditions: relative to prazosin; test compound 10 nanograms/ml; shift of norepinephrine ED50, rat seminal vesicle
T1 construct: Seminal vesicles were removed and transfered to a shallow dish containing modified Tyrode's solution; from tissue; host or cells: isolated seminal vesicle of male Long Evans rats
T1 sequence (P43140 1-466): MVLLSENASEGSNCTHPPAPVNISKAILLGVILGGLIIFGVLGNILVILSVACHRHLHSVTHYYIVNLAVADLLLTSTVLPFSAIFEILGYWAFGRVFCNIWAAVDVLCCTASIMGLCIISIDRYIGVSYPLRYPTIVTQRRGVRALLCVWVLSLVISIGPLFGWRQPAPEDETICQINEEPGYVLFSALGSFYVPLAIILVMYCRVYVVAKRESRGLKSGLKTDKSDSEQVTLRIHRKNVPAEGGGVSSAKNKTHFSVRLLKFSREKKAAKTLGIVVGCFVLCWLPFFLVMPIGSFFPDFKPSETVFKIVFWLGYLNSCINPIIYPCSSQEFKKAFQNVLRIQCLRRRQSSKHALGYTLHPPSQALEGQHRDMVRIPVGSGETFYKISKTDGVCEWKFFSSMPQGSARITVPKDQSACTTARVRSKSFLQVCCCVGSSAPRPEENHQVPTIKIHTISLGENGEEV
Procedure: as §1
Dangan et al., Int. j. […] Lietch et al., Brit.
Male Long Evans rats weighing approximately 300 g. were sacrificed by a sharp blow on the head. Seminal vesicles were removed and transfered to a shallow dish containing modified Tyrode's solution. The vesicles were emptied of their contents by squeezing them gently with a pair of forceps. Silk thread (4-0) was attached to both ends of the vesicle and it was suspended in a 20 ml. muscle chamber containing modified oxygenated Tyrode's solution (g./liter: NaCl 8, KCl 0.2, CaCl2 0.26, NaHCO3 1, Na2 HPO4 0.575, glucose 0.5 and MgCl2 0.02). The bathing fluid was maintained at 37° C. with a thermostatically controlled isolated organ tissue bath. Contractions were recorded isometrically by means of a force displacement transducer and recordings were made with a Beckman RP Dynograph. Norepinephrine (NE) was added to the muscle chamber in volumes ranging from 0.1 to 0.4 ml. with a 1 ml. syringe attached to a 3 inch 20 gauge needle. NE and test compounds were dissolved in deionized water.
NE dose response curves were obtained alone and in the presence of test compounds. NE was allowed to remain in contact with the strip until a maximal contraction was obtained. The strip was then washed with the perfusion fluid for 15-30 seconds and the preparation was allowed to return to base line before a subsequent dose of NE was given. Increasing amounts of NE were injected into the bath in the same manner until a complete dose response was obtained.
The seminal vesicles used to obtain the control NE dose response were discarded and new preparations were placed in the tissue bath for evaluation of the test compound. The test compound was added directly to the perfusion fluid (10 nanograms/ml.) and the strips were allowed to remain in contact with the bathing media for at least 10 minutes before the NE dose response was determined. Seminal vesicles from the same rat were used for control and for test drug.
ED50 values for NE were obtained by regression analysis as described by Finney, Probit, Analysis, 2d Ed., Cambridge (1964). A minimum of 4 strips and at least 4 doses were employed to calculate the regression lines. The ED50 value is defined as the concentration of NE which produces a contraction equal to 50% of the maximal contraction.

α-adrenergic receptor [3] = test: Anesthetized dog assay for α-adrenergic blocking agents: inhibition of norepinephrine induced pressor responses; assay type: in vivo; conditions: relative to prazosin; test drug 3 mg./kg. iv; norepinephrine dose raising blood pressure by 50 mm. of Hg; anesthetized dogs
Procedure: as §1
Thus, blood pressure responses to norepinephrine (NE) in anesthetized dogs was used as a comparative assay for α-adrenergic receptor blocking properties of drugs.
Experiments were done on mongrel dogs anesthetized with sodium pentobarbital, 30 mg./kg. iv. The left femoral artery was cannulated to record aortic blood pressure and a femoral vein was cannulated for administration of drugs. All animals underwent a bilateral vagotomy. A norepinephrine dose-response curve was obtained by administering increasing doses of iv norepinephrine (0.01 - 1 μg./kg.). The test drug was then administered iv at 3 mg./kg. Approximately 30 minutes later a dose-response curve was again established for iv norepinephrine (0.01-10 μg./kg.).

[4] = dose 1 mg/kg, oral, spontaneous hypertensive rats
[5] = dose 3 mg/kg, oral, spontaneous hypertensive rats
[6] = dose 10 mg/kg, oral, spontaneous hypertensive rats
[7] = oral, spontaneous hypertensive rats

Structure (SMILES) | change in vivo at 1 mg/kg [1, 4] | change in vivo at 3 mg/kg [1, 5] | change in vivo at 10 mg/kg [1, 6] | α-Adrenergic Receptor Blocking Effect In Vitro Activity Ratio (α-adrenergic receptor [2]) | α-Adrenergic Receptor Blocking Effect In Vivo Activity Ratio (α-adrenergic receptor [3]) | "plateauing" dose response effect on blood pressure lowering [1, 7] | change in vivo at 1 mg/kg ([1]; po) | change in vivo at 3 mg/kg ([1]; po) | change in vivo at 10 mg/kg ([1]; po)
COc1cc2nc(N3CCN(C(=O)c4ccno4)CC3)nc(N)c2cc1OC [Example 1, 4-Amino-6,7-dimethyoxy-2-[4-(isoxazole-5-carbonyl)-piperazine-1-yl]quinazoline Hydrochloride] | -15% | -26% | -35% | 0.11 | 0.18 | – | – | – | –
COc1cc2nc(N3CCN(C(=O)c4ccon4)CC3)nc(N)c2cc1OC [Example 2, 4-Amino-6,7-dimethoxy-2-[4-(isoxazole-3-carbonyl)-piperazin-1-yl]quinazoline Hydrochloride] | -12% | -26% | -32% | – | – | – | – | – | –
COc1cc2nc(N3CCN(C(=O)c4cnoc4)CC3)nc(N)c2cc1OC.Cl [Example 3, 4-Amino-6,7-dimethoxy-2-[4-(isoxazole-4-carbonyl)-piperazin-1-yl]quinazoline Hydrochloride] | -13% | -23% | -35% | 0.92 | – | – | – | – | –
COc1cc2nc(N3CCN(C(=O)c4cc(C)on4)CC3)nc(N)c2cc1OC.Cl [Example 4, 4-Amino-6,7-dimethoxy-2-[4-(5-methylisoxazole-3-carbonyl)piperazin-1-yl]quinazoline Hydrochloride] | -14% | -18% | -41% | – | 0.24 | – | – | – | –
COc1cc2nc(N3CCN(C(=O)c4conc4C)CC3)nc(N)c2cc1OC.Cl [Example 5, 4-Amino-6,7-dimethoxy-2-[4-(3-methylisoxazole-4-carbonyl)piperazin-1-yl]quinazoline Hydrochloride] | -17% | -29% | -33% | 0.30 | 0.18 | – | – | – | –
COc1cc2nc(N3CCN(C(=O)c4cc(C)no4)CC3)nc(N)c2cc1OC.Cl [Example 6, 4-Amino-6,7-dimethoxy-2-[4-(3-methylisoxazole-5-carbonyl)piperazin-1-yl]quinazoline Hydrochloride] | -18% | -21% | -37% | 0.25 | – | – | – | – | –
COc1cc2nc(N3CCN(C(=O)c4cocn4)CC3)nc(N)c2cc1OC.Cl [Example 7, 4-Amino-6,7-dimethoxy-2-[4-(oxazole-4-carbonyl)piperazin-1-yl]quinazoline Hydrochloride] | -15% | -29% | -45% | 0.6 | 1.22 | – | – | – | –
COc1cc2nc(N3CCN(C(=O)c4coc(C)n4)CC3)nc(N)c2cc1OC.Cl [Example 8, 4-Amino-6,7-dimethoxy-2-[4-(2-methyloxazole-4-carbonyl)piperazin-1-yl]quinazoline Hydrochloride] | -13% | -31% | -35% | 0.17 | – | – | – | – | –
COc1cc2nc(N3CCN(C(=O)c4ocnc4C)CC3)nc(N)c2cc1OC.Cl [Example 9, 4-Amino-6,7-dimethoxy-2-[4-(4-methyloxazole-5-carbonyl)piperazin-1-yl]quinazoline Hydrochloride] | -14% | -26% | -41% | 0.19 | – | – | – | – | –
COc1cc2nc(N3CCN(C(=O)c4cnsc4)CC3)nc(N)c2cc1OC.Cl [Example 10, 4-Amino-6,7-dimethoxy-2-[4-(isothiazole-4-carbonyl)piperazin-1-yl)quinazoline Hydrochloride] | -14% | -23% | -25% | – | – | maximum blood pressure lowering effect is seen at 3 mg./kg. which could not be increased at higher doses | – | – | –
COc1cc2nc(N3CCN(C(=O)c4nccs4)CC3)nc(N)c2cc1OC [Example 11, 4-Amino-6,7-dimethoxy-2-[4-thiazole-2-carbonyl)piperazin-1-yl]quinazoline Hydrochloride] | -14% | -27% | -33% | – | – | – | – | – | –
COc1cc2nc(N3CCN(C(=O)c4cscn4)CC3)nc(N)c2cc1OC [Example 12] | -20% | -24% | -32% | 0.12 | – | – | – | – | –
COc1cc2nc(N3CCN(C(=O)c4csc(C)n4)CC3)nc(N)c2cc1OC [Example 13, 4-Amino-6,7-dimethyoxy-2-[4-(2-methylthiazole-4-carbonyl)piperazin-1-yl]quinazoline Hydrochloride] | -19% | -28% | -28% | 0.02 | – | maximum blood pressure lowering effect is seen at 3 mg./kg. which could not be increased at higher doses | – | – | –
COc1cc2nc(N3CCN(C(=O)c4cncs4)CC3)nc(N)c2cc1OC.Cl [Example 14, 4-Amino-6,7-dimethoxy-2-[4-(thiazole-5-carbonyl)piperazin-1-yl]quinazoline Hydrochloride] | -12% | -22% | -33% | 0.10 | – | – | – | – | –
COc1cc2nc(N3CCN(C(=O)c4cnc(C)s4)CC3)nc(N)c2cc1OC [Example 15, 4-Amino-6,7-dimethyoxy-2-[4-(2-methylthiazole-5-carbonyl)piperazin-1-yl]quinazoline Hydrochloride] | -20% | -25% | -37% | 0.19 | 0.09 | – | – | – | –
COc1cc2nc(N3CCN(C(=O)c4scnc4C)CC3)nc(N)c2cc1OC.Cl [Example 16, 4-Amino-6,7-dimethoxy-2-[4-(4-methylthiazole-5-carbonyl)piperazin-1-yl]quinazoline Hydrochloride] | -4% | -22% | -28% | 0.35 | – | – | – | – | –
COc1cc2nc(N3CCN(C(=O)c4ccco4)CC3)nc(N)c2cc1OC [Prazosin, 2-[4-(2-furoyl)-piperazin-1-yl]-4-amino-6,7-dimethoxyquinazoline, reference compound] | – | – | – | – | – | – | -14% | -29% | -42%
